According to patent publication US5053070A, “Pyrimidine derivatives, preparation processes thereof, herbicide containing the same, and herbicidal compositions containing the same along with other active ingredient” (Mitsui Toatsu Chemicals, Incorporated, priority 1988, dated 1991):
Converted amounts (≈) assume the structure as drawn.

Assays:
Type in all cases: in vivo
rice [1] = test: Treatment of soil under submerged condition, post-emergence (Test 5), injury; conditions: 30 g ai/a granule, 30 days later
Procedure: (§1) 1/5000-are Wagner pots were filled with soil. Seeds or tubers of barnyardgrass, Monochoria vaginalis, bulrush, Sagittaria pygmaea, Cyperus serroylnus and Eleocharis kuroguwai were seeded or planted under submerged condition. Two pairs of rice seedlings (2-3 leaf stage), which had been reared in advance, were transplanted to each pot and were allowed to grow in a green house. Each pair consisted of two rice seedlings. When the barnyardgrass grew to two-leaf stage, each pot was treated with a granule which had been prepared by processing a predetermined amount of the test composition in accordance with a similar method to the method described in Formulation Example 9. The state of emergence of weeds and the state of injury of rice were observed 30 days later.
(§2) In the table, the degrees of damages of the test plants and the degrees of injury of the rice are shown in a similar manner to Example 2.

narrowleaf waterplantain = test: Petri dish test (Test 6); conditions: 336 h; seeds on filter paper, 25° C., 14 days; read-out: I80 (ppm)
Procedure: A filter paper was placed in each glass-made Petri dish having a diameter of 9 cm. A compound dissolved in acetone was added in a predetermined amount. The filter paper was then dried in air to remove acetone. Seeds of narrowleaf waterplantain were placed on the filter paper and 10 ml of water were poured into the Petri dish. The seeds were allowed to grow at 25° C. in a bright room. Fourteen days later, the state of growth of narrowleaf water-plantain was observed.
In the table, the degree of damages of the test plant was determined by comparing the state of growth of the plant with that of the plant in an untreated group and is shown in accordance with the following standard: […]

cotton = test: Upland foliar application test (Test 3), crop injury; conditions: 30 g ai/a, foliar spray at 2-3 leaves, 30th day
Procedure: (§3) Resin-made 1/10000-are pots were filled with the soil of an upland field. Redroot pigweed, common lambsquarters, foxtail meadow, johnsongrass, barnyardgrass, green foxtail, large crabgrass, soybean, peanut and cotton were separately seeded and were allowed to germinate in a green house. When each plant grew to the stage of 2-3 leaves, an emulsion formulated from a predetermined amount of each test compound in a similar manner to the method described in Formulation Example 11 was diluted with water to a predetermined dilution rate and then sprayed at an application rate equal to 5 l per are onto the foliage of each plant by means of a pressure-operated ULV (ultra low volume) sprayer. Influence to the crops and weeds were observed on the 30th day after the spray of the herbicides. The results are shown in Table 4 in which the degree of damages of each test plant and the degree of injury to each crop are shown in a similar manner to Test 2.

soybean = test: as above; conditions: 30 g ai/a, foliar spray at 2-3 leaves, 30th day
Procedure: as §3

peanut = test: as above; conditions: 30 g ai/a, foliar spray at 2-3 leaves, 30th day
Procedure: as §3

rice [2] = test: Treatment of soil under submerged condition, pre-emergence (Test 4), injury; conditions: 30 g ai/a granule, 30 days later
Procedure: as §1, with “seroylnus” for “serroylnus”, “germinate” for “grow”, “One day later (before emergence of weeds),” for “When the barnyardgrass grew to two-leaf stage,”
(§4) In the table, the degrees of damages of the test plants and the degrees of injury of rice are shown in a similar manner to Example 2.

Sagittaria pygmaea [3] = test: Treatment of soil under submerged condition, post-emergence (Test 5); conditions: 30 g ai/a granule, 30 days later
Procedure: as §1, §2

barnyardgrass [4] = test: as above; conditions: 30 g ai/a granule, post-emergence (barnyardgrass two-leaf stage), 30 days later
Procedure: as §1, §2

bulrush [5] = test: as above; conditions: 30 g ai/a granule, 30 days later
Procedure: as §1, §2

foxtail meadow = test: Upland foliar application test (Test 3); conditions: 30 g ai/a, foliar spray at 2-3 leaves, 30th day
Procedure: as §3

green foxtail = test: Upland foliar application test (Test 3); conditions: 30 g ai/a, foliar spray at 2-3 leaves, 30th day
Procedure: as §3

redroot pigweed = test: Upland foliar application test (Test 3); conditions: 30 g ai/a, foliar spray at 2-3 leaves, 30th day
Procedure: as §3

barnyardgrass [6] = test: Upland foliar application test (Test 3); conditions: 30 g ai/a, foliar spray at 2-3 leaves, 30th day
Procedure: as §3

johnsongrass = test: Upland foliar application test (Test 3); conditions: 30 g ai/a, foliar spray at 2-3 leaves, 30th day
Procedure: as §3

large crabgrass = test: Upland foliar application test (Test 3); conditions: 30 g ai/a, foliar spray at 2-3 leaves, 30th day
Procedure: as §3

common lambsquarters = test: Upland foliar application test (Test 3); conditions: 30 g ai/a, foliar spray at 2-3 leaves, 30th day
Procedure: as §3

Sagittaria pygmaea [7] = test: Treatment of soil under submerged condition, pre-emergence (Test 4); conditions: 30 g ai/a granule, 30 days later
Procedure: as §1, with “seroylnus” for “serroylnus”, “germinate” for “grow”, “One day later (before emergence of weeds),” for “When the barnyardgrass grew to two-leaf stage,”
as §4

barnyardgrass [8] = test: as above; conditions: 30 g ai/a granule, 30 days later
Procedure: as §1, with “seroylnus” for “serroylnus”, “germinate” for “grow”, “One day later (before emergence of weeds),” for “When the barnyardgrass grew to two-leaf stage,”
as §4

bulrush [9] = test: as above; conditions: 30 g ai/a granule, 30 days later
Procedure: as §1, with “seroylnus” for “serroylnus”, “germinate” for “grow”, “One day later (before emergence of weeds),” for “When the barnyardgrass grew to two-leaf stage,”
as §4

| Structure (SMILES) | Injury Rice (rice [1]) | IC80 (narrowleaf waterplantain) | Injury Cotton (cotton) | Injury Soybean (soybean) | Injury Peanut (peanut) | Injury Rice (rice [2]) | Herbicidal effects Sagittaria Pygmaea (Sagittaria pygmaea [3]) | Herbicidal effects Barnyardgrass (barnyardgrass [4]) | Herbicidal effects Bulrush (bulrush [5]) | Herbicidal effects Foxtail meadow (foxtail meadow) | Herbicidal effects Green foxtail (green foxtail) | Herbicidal effects Redroot pigweed (redroot pigweed) | Herbicidal effects Barnyardgrass (barnyardgrass [6]) | Herbicidal effects Johnsongrass (johnsongrass) | Herbicidal effects Large crabgrass (large crabgrass) | Herbicidal effects Common lambsquarters (common lambsquarters) | Herbicidal effects Sagittaria Pygmaea (Sagittaria pygmaea [7]) | Herbicidal effects Barnyardgrass (barnyardgrass [8]) | Herbicidal effects Bulrush (bulrush [9]) |
| --- | --- | --- | --- | --- | --- | --- | --- | --- | --- | --- | --- | --- | --- | --- | --- | --- | --- | --- | --- |
| COc1cc(OC)nc(Oc2ccccc2C=NOCC=C(C)C)n1 [Compound No. 7] | 0 (91-100 (No damages)) | 17 µg/mL (≈ 49.5 µM) | 0 (91-100 (No damages)) | 0 (91-100 (No damages)) | 0 (91-100 (No damages)) | 1 (71-90 (Slight damages)) | 3 (11-40 (Medium damages)) | 5 (0-5 (Death)) | 5 (0-5 (Death)) | 5 (0-5 (Death)) | 5 (0-5 (Death)) | 5 (0-5 (Death)) | 5 (0-5 (Death)) | 5 (0-5 (Death)) | 5 (0-5 (Death)) | 4 (6-10 (Severe damages)) | 5 (0-5 (Death)) | 5 (0-5 (Death)) | 4 (6-10 (Severe damages)) |
| COc1cc(OC)nc(Oc2ccccc2C=NOCC=Cc2ccccc2)n1 [Compound No. 9] | 0 (91-100 (No damages)) | 2 µg/mL (≈ 5.11 µM) | 0 (91-100 (No damages)) | 0 (91-100 (No damages)) | 0 (91-100 (No damages)) | 1 (71-90 (Slight damages)) | 5 (0-5 (Death)) | 5 (0-5 (Death)) | 5 (0-5 (Death)) | 5 (0-5 (Death)) | 5 (0-5 (Death)) | 5 (0-5 (Death)) | 5 (0-5 (Death)) | 5 (0-5 (Death)) | 5 (0-5 (Death)) | 4 (6-10 (Severe damages)) | 5 (0-5 (Death)) | 5 (0-5 (Death)) | 4 (6-10 (Severe damages)) |
| C#CCON=Cc1ccccc1Oc1nc(OC)cc(OC)n1 [Compound No. 13, 0-(2-propynyl)-2-(4,6-dimethoxy-2-pyrimidinyloxy)benzaldoxime] | 0 (91-100 (No damages)) | 5 µg/mL (≈ 16 µM) | 0 (91-100 (No damages)) | 0 (91-100 (No damages)) | 0 (91-100 (No damages)) | 1 (71-90 (Slight damages)) | 3 (11-40 (Medium damages)) | 5 (0-5 (Death)) | 4 (6-10 (Severe damages)) | 5 (0-5 (Death)) | 5 (0-5 (Death)) | 5 (0-5 (Death)) | 5 (0-5 (Death)) | 5 (0-5 (Death)) | 5 (0-5 (Death)) | 4 (6-10 (Severe damages)) | 4 (6-10 (Severe damages)) | 4 (6-10 (Severe damages)) | 5 (0-5 (Death)) |
